Experimental data published in the supplement of paper PMC10307832.

How the values were obtained:
Test in all cases: relative viability (nuclei count vs DMSO), 5 days (fraction); higher = more cells survive
[1] = compound: C/C(=N\NC(=S)N1CCC1)/C2=CC=CC=N2 + Nc1ncn([C@H]2C[C@H](O)[C@@H](CO)O2)c(=O)n1 [Decitabine] (partner 2 µM)
Procedure, shortened: (§1)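 Relative viability divides the nuclei count in treated wells by that in vehicle wells. Lung cancer cell lines were seeded in 1536-well plates, dosed by pin tool the next day, and fixed and stained after 5 days in one step with final 0.05% Triton X-100, 1% formaldehyde and 1 ug/ml Hoechst. Dosing was a single drug or a fixed anchor-drug dose plus five library-drug doses (not always all listed) in √10 steps, and values are medians of duplicate plates imaged at 4×.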

[2] = compound: C/C(=N\NC(=S)N1CCC1)/C2=CC=CC=N2 + C[C@]1(O)C[C@@H](c2nc(-c3ccc4ccc(-c5ccccc5)nc4c3)c3c(N)nccn32)C1 [Linsitinib] (partner 1 µM)
Procedure, shortened: as §1

[3] = compound: C/C(=N\NC(=S)N1CCC1)/C2=CC=CC=N2 + Cc1nc(NC(=O)N2CCC[C@H]2C(N)=O)sc1-c1ccnc(C(C)(C)C(F)(F)F)c1 [Alpelisib] (partner 2 µM)
Procedure, shortened: as §1

[4] = compound: C/C(=N\NC(=S)N1CCC1)/C2=CC=CC=N2 + CS(=O)(=O)N1CCN(Cc2cc3nc(-c4cccc5[nH]ncc45)nc(N4CCOCC4)c3s2)CC1 [Pictilisib] (partner 1 µM)
Procedure, shortened: as §1

Cell Line	relative viability ([1]; first compound 0.05 µM)	relative viability ([1]; first compound 0.1581 µM)	relative viability ([1]; first compound 0.5 µM)	relative viability ([1]; first compound 1.581 µM)	relative viability ([1]; first compound 5 µM)	relative viability ([2]; first compound 0.05 µM)	relative viability ([2]; first compound 0.1581 µM)	relative viability ([2]; first compound 0.5 µM)	relative viability ([2]; first compound 1.581 µM)	relative viability ([2]; first compound 5 µM)	relative viability ([3]; first compound 0.05 µM)	relative viability ([3]; first compound 0.1581 µM)	relative viability ([3]; first compound 0.5 µM)	relative viability ([3]; first compound 1.581 µM)	relative viability ([3]; first compound 5 µM)	relative viability ([4]; first compound 0.05 µM)	relative viability ([4]; first compound 0.1581 µM)	relative viability ([4]; first compound 0.5 µM)	relative viability ([4]; first compound 1.581 µM)	relative viability ([4]; first compound 5 µM)
HARA	0.229	0.168	0.153	0.242	0.164	0.212	0.0896	0.163	0.109	0.08	0.31	0.0915	0.122	0.145	0.0798	0.0923	0.0752	0.0784	0.0856	0.0671
NCI-H2126	0.292	0.599	0.222	0.226	0.247	0.277	0.724	0.268	0.223	0.246	0.327	0.748	0.224	0.218	0.186	0.247	0.267	0.254	0.227	0.216
LXF-289	0.274	0.356	0.198	0.236	0.158	0.508	0.325	0.248	0.226	0.131	0.539	0.307	0.278	0.147	0.141	0.192	0.151	0.16	0.103	0.123
NCI-H460	0.0547	0.04	0.0328	0.0221	0.0138	0.0136	0.0148	0.0172	0.0108	0.005	0.0117	0.0186	0.0138	0.0126	0.0076	0.108	0.12	0.0972	0.13	0.0516
NCI-H1395	0.331	0.36	0.357	0.354	0.377	0.374	0.336	0.307	0.353	0.36	0.4	0.354	0.423	0.354	0.463	0.386	0.371	0.305	0.343	0.377
NCI-H2009	0.114	0.155	0.144	0.136	0.117	0.139	0.163	0.154	0.165	0.138	0.113	0.135	0.15	0.164	0.141	0.144	0.156	0.178	0.172	0.0975
